Source: ChEMBL document CHEMBL5465560, “Selectivity Literature for EUbOPEN Chemogenomic Library” (2024)

Columns and labels:
[1] = target: Tyrosine-protein kinase HCK (Homo sapiens) (UniProt P08631); assay: Selectivity interaction (SelectScreen profiling (Invitrogen)) EUB0000607a HCK; conditions: at 2 µM
[2] = target: Serine/threonine-protein kinase pim-1 (Homo sapiens, UniProt P11309); assay: Selectivity interaction (SelectScreen profiling (Invitrogen)) EUB0000607a PIM1; conditions: at 2 µM
[3] = target: Phosphatidylinositol 4-phosphate 3-kinase C2 domain-containing subunit beta (Homo sapiens) (UniProt O00750); assay: Selectivity interaction (KinomeScan (DiscoverX)) EUB0001049a PIK3C2B; conditions: at 1 µM
[4] = target: T1, Myotonin-protein kinase (Homo sapiens) (UniProt Q09013); assay: Selectivity interaction (KinomeScan (DiscoverX)) EUB0001049a DMPK; conditions: at 1 µM
T1 sequence (whole entry): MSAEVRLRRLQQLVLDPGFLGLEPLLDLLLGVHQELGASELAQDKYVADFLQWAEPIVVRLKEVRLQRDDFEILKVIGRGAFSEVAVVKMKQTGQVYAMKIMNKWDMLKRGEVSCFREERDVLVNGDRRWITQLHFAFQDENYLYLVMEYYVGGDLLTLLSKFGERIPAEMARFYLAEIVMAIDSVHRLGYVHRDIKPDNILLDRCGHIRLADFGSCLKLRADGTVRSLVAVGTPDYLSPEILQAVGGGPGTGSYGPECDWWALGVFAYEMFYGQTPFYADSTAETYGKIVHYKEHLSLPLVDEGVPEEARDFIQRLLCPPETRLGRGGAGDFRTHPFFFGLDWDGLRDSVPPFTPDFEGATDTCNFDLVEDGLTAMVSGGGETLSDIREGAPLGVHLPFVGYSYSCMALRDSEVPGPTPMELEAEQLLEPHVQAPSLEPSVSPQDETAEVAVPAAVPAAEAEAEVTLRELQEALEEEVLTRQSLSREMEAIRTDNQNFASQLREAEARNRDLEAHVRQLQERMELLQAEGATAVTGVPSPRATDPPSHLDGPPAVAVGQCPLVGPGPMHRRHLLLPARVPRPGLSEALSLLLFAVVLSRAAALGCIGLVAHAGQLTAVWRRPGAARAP

[5] = target: Ribosomal protein S6 kinase alpha-5 (Homo sapiens) (UniProt O75582); conditions: at 10 µM
[6] = target: T2, Mitogen-activated protein kinase kinase kinase 5 (Homo sapiens) (UniProt Q99683); assay: Selectivity interaction (KinomeScan (DiscoverX)) EUB0000090b MAP3K5; conditions: at 1 µM
T2 sequence (whole entry): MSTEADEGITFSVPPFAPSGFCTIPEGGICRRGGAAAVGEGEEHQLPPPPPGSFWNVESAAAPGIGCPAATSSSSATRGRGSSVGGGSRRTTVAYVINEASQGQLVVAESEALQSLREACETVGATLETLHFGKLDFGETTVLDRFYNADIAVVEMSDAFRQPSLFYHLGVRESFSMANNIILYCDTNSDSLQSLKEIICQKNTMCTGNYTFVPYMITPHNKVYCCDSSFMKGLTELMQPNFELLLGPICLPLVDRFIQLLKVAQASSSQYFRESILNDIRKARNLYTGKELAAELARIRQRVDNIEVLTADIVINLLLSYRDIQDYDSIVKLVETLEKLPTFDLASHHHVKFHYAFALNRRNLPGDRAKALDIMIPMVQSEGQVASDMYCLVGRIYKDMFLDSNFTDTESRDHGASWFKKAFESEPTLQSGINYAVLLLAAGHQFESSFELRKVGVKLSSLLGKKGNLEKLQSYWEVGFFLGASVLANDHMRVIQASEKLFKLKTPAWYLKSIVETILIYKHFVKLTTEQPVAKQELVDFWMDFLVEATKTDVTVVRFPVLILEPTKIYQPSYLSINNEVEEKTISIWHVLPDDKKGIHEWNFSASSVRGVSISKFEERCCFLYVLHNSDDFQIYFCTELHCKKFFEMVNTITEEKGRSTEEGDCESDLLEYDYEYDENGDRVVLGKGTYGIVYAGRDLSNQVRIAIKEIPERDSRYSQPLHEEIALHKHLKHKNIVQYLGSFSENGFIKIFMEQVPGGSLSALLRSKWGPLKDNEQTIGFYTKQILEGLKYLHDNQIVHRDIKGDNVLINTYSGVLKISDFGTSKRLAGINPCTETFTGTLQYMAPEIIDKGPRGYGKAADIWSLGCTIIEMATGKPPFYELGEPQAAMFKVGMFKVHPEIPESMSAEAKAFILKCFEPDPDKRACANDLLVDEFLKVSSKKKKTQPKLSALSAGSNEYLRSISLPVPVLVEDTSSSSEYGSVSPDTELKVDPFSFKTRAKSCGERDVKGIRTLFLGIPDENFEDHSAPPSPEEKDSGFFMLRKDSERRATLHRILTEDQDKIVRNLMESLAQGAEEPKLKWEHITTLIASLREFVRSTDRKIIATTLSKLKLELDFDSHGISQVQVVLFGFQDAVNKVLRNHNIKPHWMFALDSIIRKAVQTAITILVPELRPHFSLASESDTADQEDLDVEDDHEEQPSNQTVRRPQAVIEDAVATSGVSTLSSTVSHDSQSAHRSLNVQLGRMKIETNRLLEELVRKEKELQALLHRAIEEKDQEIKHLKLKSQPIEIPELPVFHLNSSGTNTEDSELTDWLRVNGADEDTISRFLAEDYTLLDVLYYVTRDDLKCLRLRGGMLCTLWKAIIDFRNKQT

Sequence of Serine/threonine-protein kinase pim-1 (P11309 whole entry, looked up, the tested form may be a part): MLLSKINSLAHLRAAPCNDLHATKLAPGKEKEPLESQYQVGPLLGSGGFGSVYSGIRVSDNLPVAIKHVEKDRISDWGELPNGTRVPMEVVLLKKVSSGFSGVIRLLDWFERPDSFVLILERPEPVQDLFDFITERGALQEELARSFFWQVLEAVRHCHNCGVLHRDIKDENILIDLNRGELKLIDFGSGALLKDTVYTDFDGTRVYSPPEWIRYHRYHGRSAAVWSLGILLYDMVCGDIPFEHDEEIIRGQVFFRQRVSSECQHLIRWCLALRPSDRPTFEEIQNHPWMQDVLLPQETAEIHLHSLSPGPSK
Sequence of Phosphatidylinositol 4-phosphate 3-kinase C2 domain-containing subunit beta (Homo sapiens) (O00750 whole entry, the tested form may be a part): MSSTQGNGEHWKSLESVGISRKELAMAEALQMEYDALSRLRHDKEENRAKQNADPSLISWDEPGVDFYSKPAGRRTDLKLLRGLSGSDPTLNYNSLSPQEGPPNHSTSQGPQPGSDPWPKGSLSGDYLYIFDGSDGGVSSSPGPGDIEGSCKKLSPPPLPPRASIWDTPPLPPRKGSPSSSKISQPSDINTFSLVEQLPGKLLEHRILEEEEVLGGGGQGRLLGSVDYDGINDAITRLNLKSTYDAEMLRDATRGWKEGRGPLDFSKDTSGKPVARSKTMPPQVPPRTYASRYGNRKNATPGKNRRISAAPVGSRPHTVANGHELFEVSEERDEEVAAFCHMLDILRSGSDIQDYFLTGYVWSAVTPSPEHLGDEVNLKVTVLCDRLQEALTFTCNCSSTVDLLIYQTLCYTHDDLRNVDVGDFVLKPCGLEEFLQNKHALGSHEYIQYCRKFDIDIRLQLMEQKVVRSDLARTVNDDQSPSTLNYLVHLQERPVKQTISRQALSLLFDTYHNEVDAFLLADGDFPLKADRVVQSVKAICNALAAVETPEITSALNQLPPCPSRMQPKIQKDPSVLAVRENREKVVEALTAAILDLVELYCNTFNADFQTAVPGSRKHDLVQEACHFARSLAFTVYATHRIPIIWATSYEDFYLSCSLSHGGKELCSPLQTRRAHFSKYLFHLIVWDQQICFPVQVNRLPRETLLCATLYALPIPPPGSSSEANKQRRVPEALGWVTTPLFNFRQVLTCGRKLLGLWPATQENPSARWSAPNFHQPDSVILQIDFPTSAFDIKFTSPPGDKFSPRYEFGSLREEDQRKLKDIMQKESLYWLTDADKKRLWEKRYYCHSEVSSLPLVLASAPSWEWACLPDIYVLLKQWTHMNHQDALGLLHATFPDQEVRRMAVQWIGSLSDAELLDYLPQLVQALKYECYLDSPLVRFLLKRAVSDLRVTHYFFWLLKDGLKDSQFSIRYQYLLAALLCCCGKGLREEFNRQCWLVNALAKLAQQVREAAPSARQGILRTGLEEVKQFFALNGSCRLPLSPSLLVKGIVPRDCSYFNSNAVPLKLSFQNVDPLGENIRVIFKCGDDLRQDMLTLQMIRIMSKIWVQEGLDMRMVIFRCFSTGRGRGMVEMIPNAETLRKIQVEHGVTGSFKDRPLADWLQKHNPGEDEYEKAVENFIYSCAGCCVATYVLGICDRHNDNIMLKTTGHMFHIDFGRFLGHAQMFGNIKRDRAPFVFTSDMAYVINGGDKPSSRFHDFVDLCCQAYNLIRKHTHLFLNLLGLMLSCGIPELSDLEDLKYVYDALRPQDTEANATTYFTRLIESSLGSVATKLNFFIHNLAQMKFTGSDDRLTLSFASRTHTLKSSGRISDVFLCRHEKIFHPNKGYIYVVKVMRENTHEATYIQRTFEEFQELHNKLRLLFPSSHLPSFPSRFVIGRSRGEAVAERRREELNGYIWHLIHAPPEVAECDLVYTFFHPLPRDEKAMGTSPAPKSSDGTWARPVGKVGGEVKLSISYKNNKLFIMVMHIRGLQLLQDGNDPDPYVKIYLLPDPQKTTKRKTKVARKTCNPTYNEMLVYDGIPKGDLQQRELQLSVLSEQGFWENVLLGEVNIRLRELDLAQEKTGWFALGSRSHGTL
Sequence of Tyrosine-protein kinase HCK (Homo sapiens) (P08631 2-526 limits assumed): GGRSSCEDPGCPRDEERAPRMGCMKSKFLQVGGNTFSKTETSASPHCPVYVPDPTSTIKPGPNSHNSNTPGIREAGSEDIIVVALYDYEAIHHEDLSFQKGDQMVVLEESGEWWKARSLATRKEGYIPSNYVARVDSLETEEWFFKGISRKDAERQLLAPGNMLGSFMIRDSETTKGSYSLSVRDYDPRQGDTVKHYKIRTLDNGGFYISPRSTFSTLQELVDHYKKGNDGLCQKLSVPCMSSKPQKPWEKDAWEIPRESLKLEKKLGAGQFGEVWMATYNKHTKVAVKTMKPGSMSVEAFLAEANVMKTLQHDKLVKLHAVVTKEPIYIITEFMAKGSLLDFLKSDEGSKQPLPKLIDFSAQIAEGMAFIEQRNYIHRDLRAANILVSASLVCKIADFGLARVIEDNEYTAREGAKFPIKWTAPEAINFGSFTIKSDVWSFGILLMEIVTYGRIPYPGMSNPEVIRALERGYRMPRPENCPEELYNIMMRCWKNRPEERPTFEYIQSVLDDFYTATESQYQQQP
Sequence of Ribosomal protein S6 kinase alpha-5 (Homo sapiens) (O75582 whole entry, looked up): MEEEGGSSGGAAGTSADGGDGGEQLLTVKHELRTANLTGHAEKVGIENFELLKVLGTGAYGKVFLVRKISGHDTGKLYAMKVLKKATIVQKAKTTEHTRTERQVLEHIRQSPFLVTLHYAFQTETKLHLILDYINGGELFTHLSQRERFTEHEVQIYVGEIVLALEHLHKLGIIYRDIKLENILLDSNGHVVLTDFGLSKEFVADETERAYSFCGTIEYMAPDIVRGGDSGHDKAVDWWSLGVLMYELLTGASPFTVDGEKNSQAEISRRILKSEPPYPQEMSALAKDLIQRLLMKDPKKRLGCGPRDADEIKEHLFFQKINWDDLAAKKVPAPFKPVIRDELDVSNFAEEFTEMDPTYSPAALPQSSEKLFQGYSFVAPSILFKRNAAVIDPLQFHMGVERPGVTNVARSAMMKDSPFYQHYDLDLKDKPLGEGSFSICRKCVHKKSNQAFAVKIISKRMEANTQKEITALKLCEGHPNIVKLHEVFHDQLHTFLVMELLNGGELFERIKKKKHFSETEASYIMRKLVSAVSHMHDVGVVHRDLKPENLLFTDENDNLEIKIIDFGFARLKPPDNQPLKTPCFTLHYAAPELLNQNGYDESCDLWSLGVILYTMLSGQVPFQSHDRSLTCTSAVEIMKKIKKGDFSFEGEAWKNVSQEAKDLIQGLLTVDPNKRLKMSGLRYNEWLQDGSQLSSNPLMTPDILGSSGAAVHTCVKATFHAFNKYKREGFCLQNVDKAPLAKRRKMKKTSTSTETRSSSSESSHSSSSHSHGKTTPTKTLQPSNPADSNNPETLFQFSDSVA

CNC(=O)Nc1ccc(-c2nc(N3CC4CCC(C3)O4)c3cnn(C4CCC5(CC4)OCCO5)c3n2)cc1
% of inhibition [1]: 5%
% of inhibition [2]: 1%

COc1cc(Nc2nc(C)cc(-c3cnn4nc(OC)ccc34)n2)cc(C(F)(F)F)c1
% of control [3]: 100%
% of control [4]: 100%

COCC(=O)NC/C=C/c1ccc2ncnc(Nc3ccc(Oc4ccc(C)nc4)c(C)c3)c2c1 [CP-724714]
% of control [5]: 99%

CN(C)C/C=C/C(=O)Nc1ccc(C(=O)N2CCCC(Nc3ncc(Cl)c(-c4c[nH]c5ccccc45)n3)C2)cc1 (stereo unspecified)
% of control [6]: 88%
